From patent US20250340570A1, “COMPOSITIONS USEFUL FOR MODULATING SPLICING” (Skyhawk Therapeutics, Inc., priority 2022, published 2025)

Key:
[1] = system: ATXN3 transcripts containing exon 4; assay: ATXN3 quantitative splicing assay (qPCR, E4E5 transcripts containing exon 4); type: cell-based; conditions: Human neuroblastoma SK-N-MC cells, 24 h treatment, qPCR primers/probe E4E5
Method: Human neuroblastoma SK-N-MC cells were plated in 384-well plates at 20,000 cells/well. Twenty-four hours after plating, cells were treated with compounds for 24 h at appropriate concentrations ranging from 30 μM to 0.6 nM (0.3% DMSO). Treated cells were lysed in 15 μL of lysis buffer, and cDNA was synthesized using the Fast Advanced Cells-to-Ct kit. Two μL of each cDNA was used in qPCR reactions to confirm the exon 4 skipped transcripts of ATXN3. A second set of primers/probe E4E5 was used to detect the transcripts containing exon 4. The third set of primers/probe E8E9 was used to detect total gene level of ATXN3. The qPCR reactions were prepared in 384-well plates in 10.L volume, using TaqMan™ Fast Advanced Master Mix with primers and probes shown in the table below. Reactions were run in a Quant Studio 6 qPCR instrument with default settings.
The primers and probes are listed below in Table 5.

total ATXN3 protein = assay: ATXN3 total protein assay (Mesoscale Discovery); type: cell-based; conditions: Human neuroblastoma SK-N-MC cells, 48 hours incubation, MSD assay
Method: Human neuroblastoma SK-N-MC cells were seeded at 10,000 cells/well in 384 well plates one day prior to compound treatment. The concentrations of compounds were tested at appropriate doses ranging from 30 µM to 0.6 nM. After incubation for 48 hours, the cells were lysed with 25.L of lysis buffer containing protease inhibitors, and total ATXN3 protein levels were assessed by Mesoscale Discovery (MSD) assay developed with one pair of and-ATXN3 antibodies. The capture and detect antibodies were raised in mouse and rabbit respectively. Anti-rabbit MSD-ST antibody was used for secondary antibody.
ATXN3 recombinant protein was used for standards. The readouts were captured with 35.L of MSD read buffer and multi-array 384-well high binding plates.

## C[C@H](F)[C@H](N)Cc1sc2c(NCc3cccs3)snc2c1Cl [Compound 74, 7-[(2R,3S)-2-amino-3-fluorobutyl]-8-chloro-4-thenylamino-3,6-dithia-2-azabicyclo[3.3.0]octa-1,4,7-triene]
[1]
  IC50: 0.101 to 0.5 µM
Total ATXN3 protein
  IC50: 0.101 to 0.5 µM

## COc1c(C[C@H](C)N)sc2c(NCc3cccs3)snc12 [Compound 28, 7-[(S)-2-aminopropyl]-8-methoxy-4-thenylamino-3,6-dithia-2-azabicyclo[3.3.0]octa-1,4,7-triene]
[1]
  IC50: 5 to 10 µM
Total ATXN3 protein
  IC50: 10 to 40 µM

## C[C@H](N)Cc1sc2c(NCc3cccs3)snc2c1Cl [Compound 17, 7-[(S)-2-aminopropyl]-8-chloro-4-thenylamino-3,6-dithia-2-azabicyclo[3.3.0]octa-1,4,7-triene]
[1]
  IC50: 0.501 to 5 µM
Total ATXN3 protein
  IC50: 0.101 to 0.5 µM

## C[C@@H](F)[C@H](N)Cc1sc2c(NCc3cccs3)snc2c1Cl [Compound 75, 7-[(2R,3R)-2-amino-3-fluorobutyl]-8-chloro-4-thenylamino-3,6-dithia-2-azabicyclo[3.3.0]octa-1,4,7-triene]
[1]
  IC50: 0.101 to 0.5 µM
Total ATXN3 protein
  IC50: 0.501 to 5 µM

## C[C@H](N)Cc1cc2nsc(NCc3cccs3)c2s1 [Compound 66, 5-[(2S)-2-aminopropyl]-N-(thiophen-2-ylmethyl)thieno[3,2-c][1,2]thiazol-3-amine]
[1]
  IC50: 10 to 40 µM
Total ATXN3 protein
  IC50: 10 to 40 µM

## Cc1c(C[C@H](C)N)sc2c(NCc3ccco3)snc12 [Compound 6, 7-[(S)-2-aminopropyl]-4-(furfurylamino)-8-methyl-3,6-dithia-2-azabicyclo[3.3.0]octa-1,4,7-triene]
[1]
  IC50: 0.501 to 5 µM
Total ATXN3 protein
  IC50: 0.501 to 5 µM

## Cc1csc2c(NCc3ccccc3)snc12 [Compound 3, (benzyl)(8-methyl-3,6-dithia-2-azabicyclo[3.3.0]octa-1,4,7-trien-4-yl)amine]
[1]
  IC50: 10 to 40 µM
Total ATXN3 protein
  IC50: 10 to 40 µM

## C[C@H](N)C(O)c1sc2c(NCc3cccs3)snc2c1Cl (stereo partly drawn) [Compound 102, (2S)-2-amino-1-(8-chloro-4-thenylamino-3,6-dithia-2-azabicyclo[3.3.0]octa-1,4,7-trien-7-yl)-1-propanol]
[1]
  IC50: 10 to 40 µM
Total ATXN3 protein
  IC50: 10 to 40 µM

## N[C@@H](CO)Cc1sc2c(NCc3cccs3)snc2c1Br [Compound 59, (R)-2-amino-3-(8-bromo-4-thenylamino-3,6-dithia-2-azabicyclo[3.3.0]octa-1,4,7-trien-7-yl)-1-propanol]
[1]
  IC50: 0.101 to 0.5 µM
Total ATXN3 protein
  IC50: 0.101 to 0.5 µM

## N[C@H](Cc1sc2c(NCc3cccs3)snc2c1Br)CC1CC1 [Compound 49, 7-[(S)-2-amino-3-cyclopropylpropyl]-8-bromo-4-thenylamino-3,6-dithia-2-azabicyclo[3.3.0]octa-1,4,7-triene]
[1]
  IC50: 0.501 to 5 µM
Total ATXN3 protein
  IC50: 0.501 to 5 µM

## C[C@H](N)Cc1sc2c(NCc3cccs3)snc2c1CO [Compound 87, {7-[(S)-2-aminopropyl]-4-thenylamino-3,6-dithia-2-azabicyclo[3.3.0]octa-1,4,7-trien-8-yl}methanol]
[1]
  IC50: 10 to 40 µM
Total ATXN3 protein
  IC50: 10 to 40 µM

## C=Cc1c(C[C@H](C)N)sc2c(NCc3cccs3)snc12 [Compound 21, 5-[(2S)-2-aminopropyl]-6-ethenyl-N-(thiophen-2-ylmethyl) thieno[3,2-c][1,2]thiazol-3-amine]
[1]
  IC50: 10 to 40 µM
Total ATXN3 protein
  IC50: 10 to 40 µM

## Cc1csc2c(NCc3ccco3)snc12 [Compound 4, (furfuryl)(8-methyl-3,6-dithia-2-azabicyclo[3.3.0]octa-1,4,7-trien-4-yl)amine]
[1]
  IC50: 10 to 40 µM
Total ATXN3 protein
  IC50: 10 to 40 µM

## C=Cc1c(C[C@@H](N)[C@H](C)F)sc2c(NCc3cccs3)snc12 [Compound 97, 7-[(2R,3S)-2-amino-3-fluorobutyl]-4-thenylamino-8-vinyl-3,6-dithia-2-azabicyclo[3.3.0]octa-1,4,7-triene]
[1]
  IC50: 0.501 to 5 µM
Total ATXN3 protein
  IC50: 0.501 to 5 µM

## C[C@H](N)C(F)(F)c1sc2c(NCc3cccs3)snc2c1Cl [Compound 98, 7-[(S)-2-amino-1,1-difluoropropyl]-8-chloro-4-thenylamino-3,6-dithia-2-azabicyclo[3.3.0]octa-1,4,7-triene]
[1]
  IC50: 0.501 to 5 µM
Total ATXN3 protein
  IC50: 0.501 to 5 µM

## Cc1c(C[C@@H](N)CC(F)(F)F)sc2c(NCc3cccs3)snc12 [Compound 36, 7-[(S)-2-amino-4,4,4-trifluorobutyl]-8-methyl-4-thenylamino-3,6-dithia-2-azabicyclo[3.3.0]octa-1,4,7-triene]
[1]
  IC50: 0.501 to 5 µM
Total ATXN3 protein
  IC50: 0.501 to 5 µM

## C[C@H](N)Cc1sc2c(NCc3cccs3)snc2c1Br [Compound 18, 7-[(S)-2-aminopropyl]-8-bromo-4-thenylamino-3,6-dithia-2-azabicyclo[3.3.0]octa-1,4,7-triene]
[1]
  IC50: 0.101 to 0.5 µM
Total ATXN3 protein
  IC50: 0.101 to 0.5 µM

## C[C@H](N)Cc1sc2c(NCc3ccco3)snc2c1O [Compound 25, 7-[(S)-2-aminopropyl]-4-(furfurylamino)-3,6-dithia-2-azabicyclo[3.3.0]octa-1,4,7-trien-8-ol]
[1]
  IC50: 10 to 40 µM
Total ATXN3 protein
  IC50: 10 to 40 µM

## N[C@H](Cc1sc2c(NCc3ccco3)snc2c1Cl)CC1CC1 [Compound 57, 7-[(S)-2-amino-3-cyclopropylpropyl]-8-chloro-4-(furfurylamino)-3,6-dithia-2-azabicyclo[3.3.0]octa-1,4,7-triene]
[1]
  IC50: 0.101 to 0.5 µM
Total ATXN3 protein
  IC50: 0.501 to 5 µM

## Cc1c(C[C@H](C)N)sc2c(NCc3cccs3)snc12 [Compound 7, 7-[(S)-2-aminopropyl]-8-methyl-4-thenylamino-3,6-dithia-2-azabicyclo[3.3.0]octa-1,4,7-triene]
[1]
  IC50: 0.501 to 5 µM
Total ATXN3 protein
  IC50: 0.501 to 5 µM

## CC(=O)Nc1csc2c(NCc3cccs3)snc12 [Compound 88, N-(4-thenylamino-3,6-dithia-2-azabicyclo[3.3.0]octa-1,4,7-trien-8-yl)acetamide]
[1]
  IC50: 10 to 40 µM
Total ATXN3 protein
  IC50: 10 to 40 µM

## N[C@H](Cc1sc2c(NCc3cccs3)snc2c1Br)C1CC(F)(F)C1 [Compound 80, 7-[(R)-2-amino-2-(3,3-difluorocyclobutyl)eth-yl]-8-bromo-4-thenylamino-3,6-dithia-2-azabicyclo[3.3.0]octa-1,4,7-triene]
[1]
  IC50: 0.501 to 5 µM
Total ATXN3 protein
  IC50: 5 to 10 µM

## N[C@H](Cc1sc2c(NCc3ccco3)snc2c1Cl)CC(F)(F)F [Compound 40, 7-[(S)-2-amino-4,4,4-trifluorobutyl]-8-chloro-4-(furfurylamino)-3,6-dithia-2-azabicyclo[3.3.0]octa-1,4,7-triene]
[1]
  IC50: 0.501 to 5 µM
Total ATXN3 protein
  IC50: 0.501 to 5 µM

## Cc1c(C[C@@H](N)CC2CC2)sc2c(NCc3cccs3)snc12 [Compound 8, 7-[(S)-2-amino-3-cyclopropylpropyl]-8-methyl-4-thenylamino-3,6-dithia-2-azabicyclo[3.3.0]octa-1,4,7-triene]
[1]
  IC50: 5 to 10 µM
Total ATXN3 protein
  IC50: 5 to 10 µM

## N[C@H](Cc1sc2c(NCc3cccs3)snc2c1Cl)CC(F)(F)F [Compound 38, 7-[(S)-2-amino-4,4,4-trifluorobutyl]-8-chloro-4-thenylamino-3,6-dithia-2-azabicyclo[3.3.0]octa-1,4,7-triene]
[1]
  IC50: 0.501 to 5 µM
Total ATXN3 protein
  IC50: 0.501 to 5 µM

## Cc1c(C[C@@H](N)C2CC(F)(F)C2)sc2c(NCc3cccs3)snc12 [Compound 84, 7-[(R)-2-amino-2-(3,3-difluorocyclobutyl)eth-yl]-8-methyl-4-thenylamino-3,6-dithia-2-azabicyclo[3.3.0]octa-1,4,7-triene]
[1]
  IC50: 0.501 to 5 µM
Total ATXN3 protein
  IC50: 5 to 10 µM

## C[C@H](N)C(F)(F)c1sc2c(NCc3ccco3)snc2c1Cl [Compound 110, 7-[(S)-2-amino-1,1-difluoropropyl]-8-chloro-4-(furfurylamino)-3,6-dithia-2-azabicyclo[3.3.0]octa-1,4,7-triene]
[1]
  IC50: 0.501 to 5 µM
Total ATXN3 protein
  IC50: 0.501 to 5 µM
